Test results published in patent US20090197906A1, “REVERSION OF MALIGNANT PHENOTYPE WITH 9-HYDROXY ELLIPTICINE DERIVATIVES” (priority 2006, published 2009).

Experiments:
[1] = test system: B16BL6 melanoma cell line; assay: MTT cell viability, combination with retinoids; format: cell-based
Protocol: The ex vivo cell viability inhibition by BA016DD537 in the presence of the retinoids 13CRA and ATRA was tested against B16BL6 melanoma cell line using the 3-(4,5 dimethylthiazol-2-yl)-2,5-diphenyl-2H-tetrazolium bromide (MTT) calorimetric assay.
About 1000 cells were seeded in a 96-well culture plate 24 hours before adding increasing concentrations of BA016DD537, from 1 pM to 100 pM, in the absence or in the presence of 10 nM of retinoids. The plate was incubated at 37° C. for 3 days. 10 μl MTT stock solution (5 mg/ml in phosphate buffer saline) was added to 90 μl of complete medium in each well, the incubation was continued for 3 h at 37° C. 100 μl of lysis buffer (20% sodium dodecyl sulfate, 10 mM HCl, 1×PBS) was added to each well, and the plate was incubated overnight. The absorbance was determined using an Integrated EIA Management System (Labsystem) at a wavelength of 570 nm.

B16F10 melanoma cells = assay: wound healing assay (cell motility); format: cell-based, murine; details: 50 nM
Protocol: Wound healing assay was performed to evaluate the effect of BA016DD537 on motility of malignant NIH 3T3 EF cells and melanoma cell lines B16F10 and B16BL6. All the cells were incubated at 37° C. in a humidified 5% CO2 atmosphere. About 100 000-200 000 cells were seeded in a 6-well culture plate and BA016DD537, at the different concentrations, was added 24 hours later. Cells were grown for 3 days to confluence about 90-95% and small scratch-wounds (about 200 μm-1 mm width) were made with a pipette tip. Cell debris were removed, then the cultures were incubated in complete medium for 10 h in the presence of the same concentration of BA016DD537. Then, the cells were fixed for 10 min in PBS containing 3.7% formaldehyde at 4° C.

NIH 3T3 EF = assay: cloning assay in methylcellulose (colony formation); format: cell-based; details: read-out: Inhibition of colony formation (methylcellulose) IC50
Protocol: (§1) Cells were embedded in complete culture medium supplemented with 0.8% methylcellulose (Methocel MC4000, Sigma), seeded in triplicate into 35-mm dishes (Greiner Bio-one Ref 627102, Dominique Dutscher) and incubated at 37° C. in a humidified 5% CO2 atmosphere. The number of cells seeded was 1000 cells per dish. After one to three weeks, according to cell lines, macroscopic clones were counted.

NIH 3T3 EF cells = assay: F-actin network rescue, FITC-phalloidin fluorescence microscopy; format: cell-based; details: non cytotoxic concentrations (100 nM and 200 nM), three days
Protocol: Malignant NIH 3T3 EF cells were seeded onto glass cover slips at a density of 2000 cells per cm^2. The next day, BA016DD537 was applied to NIH 3T3 EF cells at various non cytotoxic concentrations (100 nM and 200 nM). Three days later, cells were fixed for 10 min in PBS containing 3.7% formaldehyde at 4° C. before examination with a fluorescence microscope. The formaldehyde solution was neutralized with 50 mM NH4Cl. Extraction was carried out for 4 min with 0.4% Triton X-100 in PBS. Cells were incubated for 1 h with blocking buffer (3% bovine serum albumin in PBS) and then for 20 min with FITC-phalloidin (Sigma) at room temperature. Cover slips were mounted in Vectashieldk (Zymed) and observed through a fluorescence microscope (Nikon).

PANC-1 cell line = assay: morphological changes under microscopic observation (phenotype reversal); format: cell-based, human
Excerpt: (§2) Changes in configuration and number of pancreatic cell lines were observed under microscopic observation (FIG. 5).

MIA PaCa-2 cells = assay: as above; format: cell-based, human; details: 4 μM for 3 days
Excerpt: as §2

SK-N-MC = assay: cloning assay in methylcellulose (colony formation); format: cell-based; details: read-out: Inhibition of colony formation (methylcellulose) IC50
Protocol: as §1

B16BL6 = assay: as above; format: cell-based; details: read-out: Inhibition of colony formation (methylcellulose) IC50
Protocol: as §1

[2] = test system: B16F10 cell pulmonary metastases; assay: antimetastatic activity, B16F10 pulmonary metastases after i.v. injection; format: in vivo, mice
Protocol: In order to assess the anti-invasive property, the effect of 2-(beta piperidino-2-ethyl)-9-hydroxyellipticinium methanesulfonate on this process has been tested.
100 μl of a B16F10 cellular suspension (4.10^5 cells) were injected using i.v. route into the retro-orbital sinus of the mice. The 2-(beta piperidino-2-ethyl)-9-hydroxyellipticinium methanesulfonate (BA016FZ539) solution was administrated i.v to mice 24 hours and 72 hours after cell injection at a dose of 5 mg/Kg (first experiment) and 7.5 mg/kg (second experiment). In control group, mice were injected iv with physiological serum. Seven days later, the mice were sacrificed, the lungs were excised and metastatic nodules were counted under a dissecting microscope.

SKMEL28 = assay: cloning assay in methylcellulose (colony formation); format: cell-based, human; details: read-out: Inhibition of colony formation (methylcellulose) IC50
Protocol: as §1

C9 = assay: as above; format: cell-based, human; details: read-out: Inhibition of colony formation (methylcellulose) IC50
Protocol: as §1

A375 = assay: as above; format: cell-based, human; details: read-out: Inhibition of colony formation (methylcellulose) IC50
Protocol: as §1

451 Lu = assay: as above; format: cell-based, human; details: read-out: Inhibition of colony formation (methylcellulose) IC50
Protocol: as §1

1205 Lu = assay: as above; format: cell-based, human; details: read-out: Inhibition of colony formation (methylcellulose) IC50
Protocol: as §1

Mia Paca-2 = assay: as above; format: cell-based, human; details: read-out: Inhibition of colony formation (methylcellulose) IC50
Protocol: as §1

PANC-1 = assay: as above; format: cell-based, human; details: read-out: Inhibition of colony formation (methylcellulose) IC50
Protocol: as §1

HT144 = assay: as above; format: cell-based, human; details: read-out: Inhibition of colony formation (methylcellulose) IC50
Protocol: as §1

Cc1c2cc[n+](CCN3CCCCC3)cc2c(C)c2c1[nH]c1ccc(O)cc12.[Cl-] [BA016DD537, 2-(β-piperidinoethyl)-9-hydroxyellipticinium chloride]
decrease of dose when used in combination with retinoids for the same results ([1]; 100 nM alone vs 1 pM in the presence of ATRA 10 nM): 100 000 fold
tumoral cell viability inhibition (MTT) ([1]; lower doses in the presence of 10 nM retinoids (13CRA, ATRA)): increased tumoral cell viability inhibition
inhibition of cell migration (B16F10 melanoma cells): complete inhibition
IC50 (NIH 3T3 EF): 30 nM
rebuilding of actin network / morphology (NIH 3T3 EF cells): able to rebuilt actin network in tumor cells at non cytotoxic concentration

CS(=O)(=O)[O-].Cc1c2cc[n+](CCN3CCCCC3)cc2c(C)c2c1[nH]c1ccc(O)cc12 [BA016FZ539, 2-(betapiperidino-2-ethyl)-9-hydroxyellipticinium methanesulfonate]
reversal of the transformed phenotype (cell morphology) (PANC-1 cell line): not in PANC-1 cell line
reversal of the transformed phenotype (cell morphology) (MIA PaCa-2 cells): reversal from the transformed phenotype (FIG. 5, A) to a normal phenotype
IC50 (SK-N-MC): 205 nM
IC50 (B16BL6): 29 nM
Inhibition of pulmonary metastases development (% of control values) ([2]; Experiment 1, 5 mg/kg/inj. i.v. J1, J3, p = 0.0904): 21% (p = 0.0904)
Inhibition of pulmonary metastases development (% of control values) ([2]; Experiment 2, 7.5 mg/kg/inj. i.v. J1, J3, p = 0.3269): 39.6% (p = 0.3269)
IC50 (SKMEL28): 515 nM
IC50 (C9): 132 nM
IC50 (A375): 97 nM
IC50 (451 Lu): 2000 nM
IC50 (1205 Lu): 247 nM
IC50 (Mia Paca-2): 640 nM
IC50 (PANC-1): 4300 nM
IC50 (HT144): 125 nM
